This is an account of results in ChEMBL document CHEMBL1128076, “Synthesis of novel 20-oxo-pregnacalciferol analogs with binding affinity to the progesterone receptor” (1995).

Molecules are shown by their SMILES.

In the test the test system is T47D. Description: Inhibition of breast cancer cell line T47D proliferation. The test is classed as functional, Homo sapiens. The arrangement: concentration or dose not given beside the values.
For the compound `CC(=O)C1CCC2/C(=C/C=C3CCC(=O)CC3)CCC[C@]12C` (stereo partly drawn), the Inhibition – broadly, the change of the read-out against control, counted positive when it falls – worked out at 58%.

Consider `C[C@H](CO)C1CCC2/C(=C/C=C3CCC4(CC3)OCCO4)CCC[C@@]21C` (stereo partly drawn), for which the Inhibition amounted to 40%.

As for `C[C@H](C=O)C1CCC2/C(=C/C=C3CCC4(CC3)OCCO4)CCC[C@@]21C` (stereo partly drawn), the Inhibition is given as 47%.

For `C=C1CC[C@H](O)C/C1=C/C=C1\CCC[C@]2(C)C(C(C)=O)CCC12` (stereo partly drawn), the Inhibition came to 59%.

`CC(=O)C1CCC2/C(=C/C=C3CCC4(CC3)OCCO4)CCC[C@]12C` (stereo partly drawn): the Inhibition worked out at 47%.

In turn, `C[C@H](CO)C1CCC2/C(=C/C=C3CCCCC3)CCC[C@@]21C` (stereo partly drawn) registered an Inhibition of 13%.

For `C[C@H](C=O)C1CCC2/C(=C/C=C3CCCCC3)CCC[C@@]21C` (stereo partly drawn), the Inhibition came out at 36%.

`CC(=O)C1CCC2/C(=C/C=C3CCCCC3)CCC[C@]12C` (stereo partly drawn) had an Inhibition of 24%.
